Measured values: US20230295134A1, “USE OF PHENYLQUINOLINONE DERIVATIVE OR FLAVONOID DERIVATIVE FOR TREATING NEUROPATHIC PAIN” (HANGZHOU BIO-SINCERITY PHARMA-TECH CO., LTD., priority 2019, published 2023)

Columns and labels:
PSL model rats = assay: Heat pain threshold in partial sciatic nerve ligation (PSL) model; assay type: in vivo, SD rats; conditions: for heat pain threshold vs Pregabalin group: comparator 30 mg/kg Pregabalin
Method: Male SD rats, weighting 200-250 g, were used to establish partial sciatic nerve ligation (PSL) model. The rats were subjected to ligation of the right sciatic nerve at high-tight level, so that ⅓-½ thickness of the sciatic nerve was trapped in the ligature, and then the wound was closed. The rats in sham group were subjected to the same operative procedure as the PSL model but without nerve ligation. On the sixth day after operation, heat pain threshold was measured in PSL model rats with Plantar Test Apparatus (BME-410) for 2 days to choose rats with stable heat pain threshold, which were randomly divided into 5 groups: 1) model; 2) 30 mg/kg Pregabalin; 3) 3 mg/kg Compound I-6; 4) 1 mg/kg Compound I-6; and 5) 0.3 mg/kg Compound I-6. Group 2-5 were given corresponding medicines orally with the dose of 1 ml/100 g, while the Group model and normal were given saline of the same volume with the same method. Heat pain threshold was measured before administration and 1, 2, 4, 6 h after intragastric administration, and the results were shown in FIG. 1.
Male SD rats, weighting 200-250g, were used to establish partial sciatic nerve ligation (PSL) model. The rats were subjected to ligation of the right sciatic nerve at high-tight level, so that ⅓-½ thickness of the sciatic nerve was trapped in the ligature, and then the wound was closed. The rats in sham group were subjected to the same operative procedure as the PSL model but without nerve ligation. On the sixth day after operation, heat pain threshold was measured in PSL model rats with Plantar Test Apparatus (BME-410) for 2 days to choose rats with stable heat pain threshold, which were randomly divided into 7 groups: 1) model; 2) 50 mg/kg Gabapentin; 3) 100 mg/kg Carbamazepine; 4) 10 mg/kg Amitriptyline; 5) 1 mg/kg Compound I-4; 6) 1 mg/kg Compound I-6; and 7) 1 mg/kg Compound II-4. Group 2 -7 were given corresponding medicines orally with the dose of 1 ml/100 g, while the Group model and normal were given saline of the same volume with the same method. Heat pain threshold was measured before and 1, 2, 4, 6h after intragastric administration, and the results were shown in FIG. 2.

[1] = test system: OXA neuropathic pain model rats; assay: Mechanical withdrawal threshold in Oxaliplatin chemotherapy-induced neuropathic pain model; assay type: in vivo, SD rats; conditions: for mechanical withdrawal threshold vs Pregabalin: 2nd-4th hour after administration
Method: Male SD rats (200-250 g) were injected 4 mg/kg of Oxaliplatin by intraperitoneal on day 1, 2, 8, 9, 15, 16, 22 and 23 to establish chemotherapy-induced neuropathic pain model. On day 24, the mechanical withdrawal threshold of rats in group normal and model were measured with Electric Von Frey (IITC-2391) to choose rats with stable mechanical withdrawal threshold, which were randomly divided into 5 groups: 1) model; 2) 30 mg/kg Pregabalin; 3) 9 mg/kg Compound II-4; 4) 3 mg/kg Compound II-4; and 5) 1 mg/kg Compound II-4. Group 2 -5 were given corresponding medicines orally with the dose of 1 ml/100g, while the Group model and normal were given saline of the same volume with the same method. Mechanical withdrawal threshold was measured before administration and 1, 2, 4, 6h after single administration, and the results were shown in FIG. 5.

CCI model rats [2] = assay: Mechanical withdrawal threshold in chronic constrictive injury (CCI) model, single dose; assay type: in vivo, SD rats
Text: Male SD rats, weighting 200-250 g, were used to establish chronic constrictive injury (CCI) model. The common sciatic nerve was exposed at the level of the middle of the thigh, and 4 ligatures (4.0 chromic gut, 0.15 mm) were tied loosely with about 1-2 mm spacing to the position proximal to the sciatic's trifurcation. The rats in sham group were subjected to the same operative procedure as the CCI model but without nerve ligation. On the seventh day after operation, mechanical withdrawal threshold was measured in CCI model rats with Electric Von Frey (IITC-2391) for 2 days to choose rats with stable mechanical withdrawal threshold, which were divided into 5 groups: 1) model; 2) 50 mg/kg Gabapentin; 3) 9 mg/kg Compound I-4; 4) 3 mg/kg Compound I-4; and 5) 1 mg/kg Compound I-4. Group 2 -5 were given corresponding medicines orally with the dose of 1 ml/100 g, while the Group model and normal were given saline of the same volume with the same method. Mechanical withdrawal threshold was measured before administration and 1, 2, 4, 6 h after intragastric administration, and the results were shown in FIG. 3.

[3] = In vivo pharmacokinetic studies (bioavailability); conditions: SD rats
Method: The in vivo pharmacokinetic studies of Compound I-6 were conducted in SD rats (n=3).

[4] = test system: diabetic neuropathic pain model; assay: Heat pain threshold in STZ-induced diabetic neuropathic pain model; assay type: in vivo, SD rats; conditions: STZ rats; for heat pain threshold of diabetic neuropathic pain model: single dose PO, I-6 1 mg/kg, Gabapentin 50 mg/kg
Method: Male SD rats (200-250 g) with normal blood sugar were fasted but had free access to water for 12 hours. The diabetes model was induced by intraperitoneal injection of 60 mg/kg streptozotocin (STZ), and was examined by 2-hour postprandial sugar level on day 7 after injection, which should be higher than 16 mmol/L. The rats in normal group were given an equal volume of citric acid-sodium citrate buffer (pH 4.2). On day 14 after injection, the heat pain threshold of rats in diabetes model or normal group were measured with Plantar Test Apparatus (BME-410) to examine the success of diabetic neuropathic pain model. The rats in diabetic neuropathic pain model were divided into 3 groups: 1) model; 2) 50 mg/kg Gabapentin; and 3) 1 mg/kg Compound I-6. Group 2 and 3 were given corresponding medicines orally with the dose of 1 ml/100 g, while the Group model and normal were given saline of the same volume with the same method. Heat pain threshold was measured before administration and 1, 2, 4, 6 h after administration, and the results were shown in FIG. 4.

ICR mice = assay: Security: intragastric administration of different dosages in mice; assay type: in vivo
[5] = as above; assay type: in vivo; conditions: mouse, in vivo, po; ICR mice; intragastric administration; read-out: half lethal dose (LD50)
CCI model rats [6] = assay: Mechanical withdrawal threshold in CCI model, 5 days repeated administration; assay type: in vivo, SD rats
Text: Male SD rats, weighting 200-250 g, were used to establish CCI model. The common sciatic nerve was exposed at the level of the middle of the thigh, and 4 ligatures (4.0 chromic gut, 0.15 mm) were tied loosely with about 1-2 mm spacing to the position proximal to the sciatic's trifurcation, then the wound was closed. The rats in sham group were subjected to the same operative procedure as the CCI model but without nerve ligation. On the seventh day after operation, mechanical withdrawal threshold was measured in CCI model rats with Electric Von Frey (IITC-2391) for 2 days to choose rats with stable mechanical withdrawal threshold, which were divided into 5 groups: 1) model; 2) 50 mg/kg Gabapentin; 3) 3 mg/kg Compound I-10; 4) 1 mg/kg Compound I-10; and 5) 0.3 mg/kg Compound I-10. Group 2-5 were given corresponding medicines orally with the dose of 1 ml/100 g for 5 days, while the Group model and normal were given saline of the same volume with the same method. Mechanical withdrawal threshold was measured before and 2 h after intragastric administration, and the results were shown in FIG. 6.

[7] = 1 mg/kg PO single dose, since 1 hour after administration
[8] = 1 mg/kg PO, comparator 50 mg/kg Gabapentin

Question: Which “heat pain threshold vs model group” value (PSL model rats; [7]) does the source give for `COc1c(-c2ccc(OCCCN3CCCCC3)cc2)oc2ccccc2c1=O` [Compound II-4, 3-Methoxy-2-(4-(3-(Piperidin-1-Yl)Propoxy)Phenyl)-4H-Chromen-4-One] here?
Answer: Its value is “significantly higher than model group”.

Question: What about the “mechanical withdrawal threshold vs model group” value ([1]; 1 mg/kg PO, 1st-2nd hour after administration) of the same molecule?
Answer: Its value is “significantly higher (P<0.01) than model group”.

Question: And the “mechanical withdrawal threshold vs Pregabalin” value ([1]; 3 mg/kg PO)?
Answer: Its value is “significantly higher (P<0.05) than 30 mg/kg Pregabalin”.

Question: And the “mechanical withdrawal threshold vs Pregabalin” value ([1]; 9 mg/kg PO)?
Answer: Its value is “significantly higher (P<0.05) than 30 mg/kg Pregabalin”.

Question: And the “mechanical withdrawal threshold, relation to dose” value ([1]; single dose 1, 3 or 9 mg/kg PO)?
Answer: The value was “dosage-dependent increase”.

Question: And the “improvement of mechanical withdrawal threshold compared with Pregabalin” value ([1]; single dose PO)?
Answer: Its value is “more effectively and longer”.

Question: With `Cn1c(-c2ccc(OCCCN3CCCCC3)cc2)cc(=O)c2ccccc21` [Compound I-4, 1-Methyl-2-(4-(3-(Piperidin-1-Yl)Propoxy)Phenyl)Quinolin-4(1H)-One] as the molecule, how does the “mechanical withdrawal threshold vs model group” value (CCI model rats [2]; 3 mg/kg PO, 1st-4th hour after administration) read?
Answer: The value was “significantly higher (P<0.01) than model group”.

Question: And the “mechanical withdrawal threshold, relation to dose” value (CCI model rats [2]; single dose 1, 3 or 9 mg/kg PO)?
Answer: Its value is “dose-dependent increase”.

Question: And the effective time (CCI model rats [2]; single dose PO, compared with 50 mg/kg Gabapentin)?
Answer: The effective time was “longer than Gabapentin”.

Question: What about the “heat pain threshold vs model group” value (PSL model rats; [7]) of the same molecule?
Answer: The value was “significantly higher than model group”.

Question: For `CCn1c(-c2ccc(OCCCN3CCCCC3)cc2)cc(=O)c2ccccc21` [Compound I-6, 1-Ethyl-2-(4-(3-(Piperidin-1-Yl)Propoxy)Phenyl)Quinolin-4(1H)-One], which “time at which peak plasma concentrations occur” value ([3]; P.O 10.0 mg/kg) is on record?
Answer: Its value is 2.00 ± 1.73 h.

Question: What about the half-life ([3]; Sprague-Dawley (SD), rat, plasma, iv, 1 mg/kg, I.V 1.00mg/kg) of the same molecule?
Answer: The half-life was 6 ± 1.43 h.

Question: What about the bioavailability ([3]; Sprague-Dawley (SD), rat, plasma, po, 10 mg/kg, read-out: absolute bioavailability) of the same molecule?
Answer: Its bioavailability is 51.3%.

Question: What about the half-life ([3]; Sprague-Dawley (SD), rat, plasma, po, P.O 10.0 mg/kg) of the same molecule?
Answer: Its half-life is 3.79 ± 0.12 h.

Question: And the “effective time vs Gabapentin” value [4, 8]?
Answer: The value was “longer effective time”.

Question: And the “heat pain threshold vs Gabapentin” value [4, 8]?
Answer: The value was “significantly higher heat pain threshold (P<0.01)”.

Question: What about the “heat pain threshold of diabetic neuropathic pain model” value [4] of the same molecule?
Answer: The value was “could improve the heat pain threshold”.

Question: And the “signs after intragastric administration” value (ICR mice; 64 mg/kg)?
Answer: Its value is “no abnormal signs”.

Question: And the “signs after intragastric administration” value (ICR mice; 256 mg/kg)?
Answer: Its value is “one of the mice given a dose of 256 mg/kg suffered convulsions but recovered on the second day”.

Question: And the “signs after intragastric administration” value (ICR mice; 1024 mg/kg)?
Answer: Its value is “one of the mice given a dose of 1024 mg/kg suffered convulsions and finally died on the second day”.

Question: And the LD50 [5]?
Answer: The LD50 was > 1020 mg/kg.

Question: What about the “heat pain threshold vs model group” value (PSL model rats; 0.3 mg/kg PO, 2nd hour after administration) of the same molecule?
Answer: The value was “significantly higher (P<0.01) than model group”.

Question: And the “heat pain threshold vs model group” value (PSL model rats; [7])?
Answer: Its value is “significantly higher than model group”.

Question: And the “heat pain threshold vs Pregabalin group” value (PSL model rats; 1.0 mg/kg PO)?
Answer: The value was “raised to be compared to 30 mg/kg Pregabalin group”.

Question: What about the “heat pain threshold vs sham group” value (PSL model rats; 3.0 mg/kg PO, 1st-2nd hour after administration) of the same molecule?
Answer: Its value is “further improved to the level equal to sham group”.

Question: What about the “heat pain threshold vs Pregabalin group” value (PSL model rats; 3.0 mg/kg PO, 1st-2nd hour) of the same molecule?
Answer: Its value is “better than Pregabalin group”.

Question: What about the “heat pain threshold, relation to dose” value (PSL model rats; single dose 0.3, 1 or 3 mg/kg PO) of the same molecule?
Answer: Its value is “increased in a dose-dependent manner”.

Question: What does the source list for `NCC1(CC(=O)O)CCCCC1` [Gabapentin, reference compound]?
Answer: mechanical withdrawal threshold vs model group (CCI model rats [2]; 50 mg/kg PO single dose): only remained significantly higher than model group during 1st-2nd hour; heat pain threshold of diabetic neuropathic pain model [4]: could improve the heat pain threshold; mechanical withdrawal threshold vs model group (CCI model rats [6]; 50 mg/kg PO for 5 days): only kept the significant difference during 2nd-5th day

Question: With `COc1c(-c2ccc(OCCCN3CCCCC3)cc2)n(C)c2ccccc2c1=O` [Compound I-10, 3-Methoxy-1-Methyl-2-(4-(3-(Piperidin-1-Yl)Propoxy)Phenyl)Quinolin-4(1H)-One] as the molecule, how does the “mechanical withdrawal threshold vs model group” value (CCI model rats [6]; 1 mg/kg PO for 5 days, 1st-5th day after administration) read?
Answer: The value was “significantly higher (P<0.01) than model group”.

Question: And the “dose-dependency and stability of efficacy” value (CCI model rats [6]; 5 days PO, compared with 50 mg/kg Gabapentin)?
Answer: The value was “better dose-dependency and stability of efficacy compared to Gabapentin”.

Question: And the “mechanical withdrawal threshold, relation to dose” value (CCI model rats [6]; repeated administration 5 days, 0.3, 1 or 3 mg/kg PO)?
Answer: Its value is “increased in a dose-dependent manner”.

Question: With `CC(C)C[C@H](CN)CC(=O)O` [Pregabalin, reference compound] as the molecule, how does the “onset of action on mechanical withdrawal threshold” value ([1]; 30 mg/kg PO) read?
Answer: Its value is “rapid action”.
